Legend:
[1] = test system: RKO colon adenocarcinoma cells (RKOp27) arrested by expression of ectopic p27Kip1; assay: Alamar Blue cell viability assay on RKOp27 cells arrested by Ponasterone A-induced p27Kip1 (cell cycle specific mode of action); format: cell-based; conditions: Homo sapiens, RKOp27, 72 h, cells arrested by p27Kip1 induced with 10 μM Ponasterone A, 72 hours incubation, read-out: IC50 RKO p27 arrested
Procedure, shortened: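 Viability measured by Alamar Blue fluorescence (ex 544, em 590 nm) after 72 h, 37 °C compound exposure in quadruplicate, normalized to untreated cells as 100%. Cells were p27Kip1-arrested RKOp27, induced with 10 μM Ponasterone A at seeding; compound added 24 h later.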

[2] = test system: RKO (RKOp27) human colon adenocarcinoma cells; assay: Alamar Blue cell viability assay, anti-proliferative/cytotoxic activity on proliferating RKOp27 cells; format: cell-based; conditions: absence of Ponasterone A, 72 hours incubation, read-out: IC50 RKO p27 proliferating
Procedure, shortened: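 IC50 values come from concentration-effect curves of Alamar Blue fluorescence (544/590 nm), relative to untreated controls set at 100%. Cells were RKOp27, seeded at 4000/well in DMEM with 10% FCS and exposed from 24 h post-seeding for 72 h (37 °C, 5% CO2) to semi-log dilutions, each run in quadruplicate.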

IC50 [1] [µM] | SMILES | IC50 [2] [µM]
≥ 100 | CCSC(=O)N1CCc2c(sc(NC(=O)/C=C/c3ccccc3Cl)c2C#N)C1 [Example 48, 2-[(E)-3-(2-Chloro-phenyl)-allanoylamino]-3-cyano-4,7-dihydro-5H-thieno[2,3-c]pyridine-6-carbothioic acid S-ethyl ester] | ≤ 2
≥ 100 | N#Cc1c(NC(=O)/C=C/c2ccccc2)sc2c1CCN(C(=O)CCCn1ccnc1)C2 [Example 190, (E)-N-[3-Cyano-6-(4-imidazol-1-yl-butanoyl)-4,5,6,7-tetrahydro-thieno[2,3-c]pyridin-2-yl]-3-phenyl-acrylamide] | ≤ 2
> 100 | CCSC(=O)N1CCc2c(sc(NC(=O)/C=C/c3cccnc3)c2C#N)C1 [Example 36, 3-Cyano-2-((E)-3-pyridin-3-yl-allanoylamino)-4,7-dihydro-5H-thieno[2,3-c]pyridine-6-carbothioic acid S-ethyl ester] | ≤ 2
≥ 50 | CN(C)CCOC(=O)N1CCc2c(sc(NC(=O)/C=C/c3ccccc3)c2C#N)C1 [Example 113, 3-Cyano-2-((E)-3-phenyl-allanoylamino)-4,7-dihydro-5H-thieno[2,3-c]pyridine-6-carboxylic acid 2-dimethylamino-ethyl ester] | ≤ 0.5
≥ 100 | CC(=O)OCCCC(=O)N1CCc2c(sc(NC(=O)/C=C/c3ccccc3)c2C#N)C1 [Example 191, Acetic acid 4-[3-cyano-2-((E)-3-phenyl-allanoylamino)-4,7-dihydro-5H-thieno[2,3-c]pyridin-6-yl]-4-oxo-butyl ester] | ≤ 2
≥ 100 | CCOc1ccccc1/C=C/C(=O)Nc1sc2c(c1C#N)CCN(C(=O)COCCOC)C2 [Example 217, (E)-N-{3-Cyano-6-[2-(2-methoxy-ethoxy)-ethanoyl]-4,5,6,7-tetrahydro-thieno[2,3-c]pyridin-2-yl}-3-(2-ethoxy-phenyl)-acrylamide] | ≤ 2
≥ 100 | CCOC(=O)N1CCc2c(sc(NC(=O)/C=C/c3ccccc3-c3ccccc3)c2C#N)C1 [Example 73, 2-((E)-3-Biphenyl-2-yl-allanoylamino)-3-cyano-4,7-dihydro-5H-thieno[2,3-c]pyridine-6-carboxylic acid ethyl ester] | ≤ 2
≥ 100 | N#Cc1c(NC(=O)/C=C/c2ccccc2)sc2c1CCN(C(=O)OCCN1CCOCC1)C2 [Example 112, 3-Cyano-2-((E)-3-phenyl-allanoylamino)-4,7-dihydro-5H-thieno[2,3-c]pyridine-6-carboxylic acid 2-morpholin-4-yl-ethyl ester] | ≤ 2
≥ 50 | N#Cc1c(NC(=O)/C=C/c2ccccc2)sc2c1CCN(C(=O)OCCCc1ccccn1)C2 [Example 124, 3-Cyano-2-((E)-3-phenyl-allanoylamino)-4,7-dihydro-5H-thieno[2,3-c]pyridin-6-carboxylic acid 3-pyridin-2-yl-propyl ester] | ≤ 0.5
≥ 100 | CCOc1ccccc1/C=C/C(=O)Nc1sc2c(c1C#N)CCN(C(=O)CCc1ccccc1)C2 [Example 221, (E)-N-[3-Cyano-6-(3-phenyl-propanoyl)-4,5,6,7-tetrahydro-thieno[2,3-c]pyridin-2-yl]-3-(2-ethoxy-phenyl)-acrylamide] | ≤ 2
≥ 100 | CCOC(=O)N1CCc2c(sc(NC(=O)/C=C/c3ccc(C)o3)c2C#N)C1 [Example 74, 3-Cyano-2-[(E)-3-(5-methyl-furan-2-yl)-allanoylamino]-4,7-dihydro-5H-thieno[2,3-c]pyridin-6-carboxylic acid ethyl ester] | ≤ 2
≥ 100 | CCOc1ccccc1/C=C/C(=O)Nc1sc2c(c1C#N)CCN(C(=O)Cc1ccccn1)C2 [Example 218, (E)-N-[3-Cyano-6-(2-pyridin-2-yl-ethanoyl)-4,5,6,7-tetrahydro-thieno[2,3-c]pyridin-2-yl]-3-(2-ethoxy-phenyl)-acrylamide] | ≤ 2
≥ 100 | COCCOCC(=O)N1CCc2c(sc(NC(=O)/C=C/c3cccnc3)c2C#N)C1 [Example 200, (E)-N-{3-Cyano-6-[2-(2-methoxy-ethoxy)-ethanoyl]-4,5,6,7-tetrahydro-thieno[2,3-c]pyridin-2-yl}-3-pyridin-3-yl-acrylamide] | ≤ 2

Source: patent publication US7723523B2, “Tetrahydropyridothiophenes” (4SC AG, priority 2004, dated 2010)
